Data taken from patent publication US20250361273A1, “METHODS AND COMPOSITIONS” (priority 2024, published 2025).
Where a SMILES comes first, the peptide text is derived from it. Bridges are numbered along the chain shown (N, C = ends). [ ]: non-standard residue; d: D form. Trp(6-F) = N[C@@H](Cc1c[nH]c2cc(F)ccc12)C(=O)O; dPhe(4-F) = N[C@H](Cc1ccc(F)cc1)C(=O)O; dAgb = N=C(N)NCC[C@@H](N)C(=O)O; Ac4c(3-oxa) = NC1(C(=O)O)COC1; Pen = CC(C)(S)[C@H](N)C(=O)O

Assays:
MC1R = MC1R (Homo sapiens, UniProt Q01726); assay: cAMP assay (human receptors), DiscoverX HitHunter, MC1R
Description: The cAMP Assay (Human Receptors)
The in vitro functional activity of peptides was determined via DiscoverX Hit Hunter® cAMP assays, adhering to manufacturer-specified protocols. Assays involved the use of HEK293 cells, each of which were engineered to express MC1R or MC4R receptors.
In accordance with standard procedures, cAMP Hunter cell lines, extracted from freezer stocks, were cultured in 20 μL volumes in white-walled, 384-well microplates. These cells were incubated at 37° C. for an appropriate duration before commencing testing procedures. The identification of cAMP modulation was determined using the DiscoverX HitHunter assay.
For gauging the response from agonists, cells were incubated with a specific peptide, after which the media was aspirated and replaced with a solution of 10 μL of HBSS/10 mM Hepes, known as Assay Buffer. A subsequent dilution of sample stocks yielded a 4× sample in the assay buffer, which was then added to the cells in equal quantities, followed by a 30-minute incubation at 37° C. The ensuing concentration of DMSO, the vehicle, was maintained at 1%. […]
Compound activity was evaluated using a Chemical and Biological Information System software (CBIS) data analysis suite. The results described were calculated on an average of the two points per concentration generated by the assay described above. […]

MC4R vs MC1R = assay: Selectivity calculation MC4R vs MC1R (division of cAMP EC50 values); format: cell-based, human
Description: Peptides, including comparator molecules were tested by assays listed below. Selectivity between receptors was assessed in part using cAMP assays, which test the activity of peptides through the Gs pathway.
Selectivity between any two receptors was calculated by a division of the EC50 values between the two receptors, for each individual peptide.

MC4R = molecular target: T1, MC4R (Homo sapiens, UniProt P32245); assay: Bias calculation MC4R B-arrestin v MC4R cAMP; format: cell-based
T1 construct: host or cells: HEK293 (cAMP Hunter and PathHunter MC4R cell lines)
T1 sequence (P32245 whole entry): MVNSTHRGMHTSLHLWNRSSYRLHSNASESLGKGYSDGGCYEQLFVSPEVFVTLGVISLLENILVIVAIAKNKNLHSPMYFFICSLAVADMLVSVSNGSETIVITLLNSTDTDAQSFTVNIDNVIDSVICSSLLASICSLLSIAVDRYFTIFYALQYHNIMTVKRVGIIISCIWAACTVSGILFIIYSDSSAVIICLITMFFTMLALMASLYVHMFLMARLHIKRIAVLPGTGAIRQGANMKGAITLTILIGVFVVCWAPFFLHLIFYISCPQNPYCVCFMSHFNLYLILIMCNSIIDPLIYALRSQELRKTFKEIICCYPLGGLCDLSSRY
Description: When comparing the selectivity of MC4R v MC1R, larger values indicate selectivity towards MC4R. When comparing the bias of MC4R B-arrestin v MC4R cAMP, larger values indicate bias towards B-arrestin.

MC1R, sequence (Q01726 whole entry): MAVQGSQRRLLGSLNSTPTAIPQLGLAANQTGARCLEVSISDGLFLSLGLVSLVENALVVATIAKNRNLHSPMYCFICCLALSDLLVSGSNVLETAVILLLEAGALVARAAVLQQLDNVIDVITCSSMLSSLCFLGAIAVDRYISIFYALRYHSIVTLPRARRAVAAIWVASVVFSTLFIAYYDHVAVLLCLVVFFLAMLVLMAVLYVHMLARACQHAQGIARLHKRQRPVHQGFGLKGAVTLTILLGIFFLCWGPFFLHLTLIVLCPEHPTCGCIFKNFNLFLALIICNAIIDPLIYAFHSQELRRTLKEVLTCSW

Row | SMILES | EC50 (MC1R) | Selectivity: MC4R v MC1R (MC4R vs MC1R; Compounds with Gln at X4, larger values indicate selectivity towards MC4R) | Selectivity: MC4R v MC1R (MC4R vs MC1R; Table 6 (A), larger values indicate selectivity towards MC4R) | Selectivity: MC4R v MC1R (MC4R vs MC1R; Table 6 (B), larger values indicate selectivity towards MC4R) | Selectivity: MC4R v MC1R (MC4R vs MC1R; Table 7, Aib(O-cyclic) at X3, larger values indicate selectivity towards MC4R) | Selectivity: MC4R v MC1R (MC4R vs MC1R; Table 14, Aib(O-cyclic) at X3, larger values indicate selectivity towards MC4R) | Selectivity: MC4R v MC1R (MC4R vs MC1R; Table 20, Gln at X4) | Selectivity: MC4R v MC1R (MC4R vs MC1R; calculated from cAMP functional screening, larger values indicate selectivity towards MC4R) | Bias: MC4R B-arrestin v MC4R cAMP (MC4R; Compounds with Gln at X4, larger values indicate bias towards B-arrestin) | Bias: MC4R B-arrestin v MC4R cAMP (MC4R; Table 6 (B), larger values indicate bias towards B-arrestin) | Bias: MC4R B-arrestin v MC4R cAMP (MC4R; Table 7, Aib(O-cyclic) at X3, larger values indicate bias towards B-arrestin) | Bias: MC4R B-arrestin v MC4R cAMP (MC4R; Table 20, Gln at X4)
1 | CCCC[C@H](NC(C)=O)C(=O)N[C@H]1CC(=O)NCCCC[C@@H](C(=O)O)NC(=O)[C@H](Cc2c[nH]c3ccccc23)NC(=O)[C@H](CCCN=C(N)N)NC(=O)[C@@H](Cc2ccccc2)NC(=O)[C@H](Cc2cnc[nH]2)NC1=O [Bremelanotide] | 0.17 nM |  |  |  |  |  |  |  |  |  |  | 
2 | CC(=O)N[C@H](CCNC(=N)N)C(=O)N[C@H]1CSSC(C)(C)[C@@H](C(N)=O)NC(=O)[C@H](Cc2c[nH]c3cc(F)ccc23)NC(=O)[C@H](CCCNC(=N)N)NC(=O)[C@@H](Cc2ccc(F)cc2)NC(=O)[C@H](CCC(N)=O)NC(=O)C2(COC2)NC1=O [Molecule 1158, (7R,12R,15S,18S,21R,24S)-7-((R)-2-acetamido-4-guanidinobutanamido)-24-(3-amino-3-oxopropyl)-15-((6-fluoro-1H-indol-3-yl)methyl)-21-(4-fluorobenzyl)-18-(3-guanidinopropyl)-11,11-dimethyl-6,14,17,20,23,26-hexaoxo-2-oxa-9,10-dithia-5,13,16,19,22,25-hexaazaspiro[3.22]hexacosane-12-carboxamide] (Ac-[dAgb]C[Ac4c(3-oxa)]Q[dPhe(4-F)]R[Trp(6-F)][Pen]-NH2; disulfide 2-8) |  | *** (*** denotes MC4R vs MC1R selectivity of about >7.40) | *** (*** denotes MC4R vs MC1R selectivity of about >7.40) | *** (*** denotes MC4R vs MC1R selectivity of about >7.40) | *** (*** denotes MC4R vs MC1R selectivity of about >7.40) | *** (*** denotes MC4R vs MC1R selectivity of about >7.40) | *** (*** denotes MC4R vs MC1R selectivity of about >7.40) | *** (*** denotes MC4R vs MC1R selectivity of about >7.40) | + (+ denotes MC4R B-arrestin v MC4R cAMP bias having a range of >0.00 to ≤2.00) | + (+ denotes MC4R B-arrestin v MC4R cAMP bias having a range of >0.00 to ≤2.00) | + (+ denotes MC4R B-arrestin v MC4R cAMP bias having a range of >0.00 to ≤2.00) | + (+ denotes MC4R B-arrestin v MC4R cAMP bias having a range of >0.00 to ≤2.00)
